The subject of one assay is Staphylococcus aureus. Description: Antimicrobial activity against Staphylococcus aureus at 0.5 to 256 ug/ml after 24 hrs by two-fold serial micro dilution method. The format is functional.
Another assay concerns Bacillus subtilis. Description: Antimicrobial activity against Bacillus subtilis at 0.5 to 256 ug/ml after 24 hrs by two-fold serial micro dilution method. In kind it is functional.
The subject of the next assay is MCF7. Briefly: Cytotoxicity against human MCF7 cells assessed as reduction in cell viability at 40 uM after 48 hrs by MTS assay. In kind it is functional, cell-based.
In the next assay the test system is Escherichia coli. Briefly: Antimicrobial activity against Escherichia coli at 0.5 to 256 ug/ml after 24 hrs by two-fold serial micro dilution method. In kind it is functional.
In the next assay the test system is HL-60. Briefly: Cytotoxicity against human HL60 cells assessed as reduction in cell viability at 40 uM after 48 hrs by MTS assay. The format is functional, cell-based. (In general: Tetrazolium assays rely on reduction of a dye to a coloured formazan, in cell work by metabolically active cells.)
In another assay the test system is Candida albicans. Description: Antifungal activity against Candida albicans at 0.5 to 256 ug/ml after 4 days by two-fold serial micro dilution method. The format is functional, organism-based.
A further assay deals with SW480. Briefly: Cytotoxicity against human SW480 cells assessed as reduction in cell viability at 40 uM after 48 hrs by MTS assay. In kind it is functional, cell-based.
Another assay concerns SMMC-7721. Description: Cytotoxicity against human SMMC7721 cells assessed as reduction in cell viability at 40 uM after 48 hrs by MTS assay. In kind it is functional, cell-based.
A further assay relates to A549. Description: Cytotoxicity against human A549 cells assessed as reduction in cell viability at 40 uM after 48 hrs by MTS assay. The format is functional, cell-based.

≈ marks a conversion by molar mass, not a printed value. Calls of active or inactive are those of the source.

`CCC[C@H](O)C/C=C/[C@@H](O)CCCC(=O)OC`: the result in the assay with Staphylococcus aureus, with Bacillus subtilis, in the assay with MCF7, with Escherichia coli, with HL-60 and with Candida albicans was inactive. The result in the assay with SW480, with SMMC-7721 and with A549 was inactive.

On to `CCC[C@@H](O)[C@@H]1Oc2ccccc2[C@@H]1O`, for which the outcome with Staphylococcus aureus, in the assay with Bacillus subtilis, in the assay on MCF7, in the assay with Escherichia coli, in the assay with HL-60 and with Candida albicans was inactive. The result in the assay with SW480, in the assay on SMMC-7721 and in the assay on A549 was inactive.

For the compound `CCCC[C@@H](O)[C@H](O)c1ccccc1O`, the outcome in the assay with Staphylococcus aureus, in the assay on Bacillus subtilis, with MCF7, in the assay with Escherichia coli, in the assay on HL-60 and with Candida albicans was inactive. Further, the outcome in the assay on SW480, in the assay with SMMC-7721 and in the assay with A549 was inactive.

As to `CCC[C@H](O)C/C=C/[C@@H](O)CCCC(=O)OC[C@@H](O)CO`, the outcome with Staphylococcus aureus, in the assay with Bacillus subtilis, in the assay with MCF7, with Escherichia coli, in the assay on HL-60 and with Candida albicans was inactive. Moreover, the outcome with SW480, in the assay with SMMC-7721 and with A549 was inactive.

`CCC[C@H](O)C/C=C/[C@@H](O)CCCC(=O)OCCCCCNC(C)=O`: the result in the assay with Staphylococcus aureus, in the assay on Bacillus subtilis, with MCF7, in the assay on Escherichia coli, in the assay on HL-60 and with Candida albicans was inactive. Further, the result in the assay on SW480, in the assay on SMMC-7721 and with A549 was inactive.

By MIC is commonly meant the smallest concentration in the dilution series that meets the test's criterion for growth inhibition. A higher MIC goes with weaker potency. In turn, NYSTATIN came in with an MIC in the assay on Candida albicans of 4 µg/mL.

For the compound `NC[C@H]1O[C@H](O[C@H]2[C@H](O)[C@@H](O[C@H]3O[C@H](CO)[C@@H](O)[C@H](N)[C@H]3O)[C@H](N)C[C@@H]2N)[C@H](O)[C@@H](O)[C@@H]1O` [KANAMYCIN], the MIC in the assay with Staphylococcus aureus amounted to 4 µg/mL (≈ 8.26 µM); in the assay with Bacillus subtilis, 4 µg/mL (≈ 8.26 µM); against Escherichia coli it was 8 µg/mL (≈ 16.5 µM).

These data come from ChEMBL document CHEMBL4480416, “Inducing Secondary Metabolite Production by Co-culture of the Endophytic Fungus Phoma sp. and the Symbiotic Fungus Armillaria sp” (2019).
